From patent publication US6380243B1, “Aminopyridine-containing thiourea inhibitors of herpes viruses” (American Home Products Corporation, priority 1998, dated 2002)
In brackets after ≈: the same amount, converted by molar mass.

Legend:
HSV-1 = assay: HSV Antiviral (ELISA) Assay; type: cell-based, herpes simplex virus type 1; conditions: Human alphaherpesvirus 1, Vero cells, HSV-1, about 24 hours post-infection, read-out: IC50 (ug/ml) HSV
Protocol: Vero cells (ATCC #CCL-81) are plated on 96-well tissue culture plates at 3.5×10^4 cells per 100 μl tissue culture DMEM (Dulbecco's modified Eagle media) supplemented with 2% fetal bovine serum (FBS) in each well. After overnight incubation @37° C. (in 5% CO2) and 30 minutes prior to infection with HSV-1 (multiplicity of infection equal to 0.006), cells are either untreated, or treated with test compound (multiple concentrations) or reference standard drug control. After approximately 24 hours post-infection incubation @37° C. (in 5% CO2), cells are fixed for ELISA assay. The primary antibody is murine anti-HSV glycoprotein D monoclonal primary antibody and the secondary antibody is goat anti-mouse IgG linked to β-galactosidase. Thus the extent of viral replication is determined by assessing β-galactosidase activity by quantifying the generation of the 4-methyl umbelliferone fluorescent cleavage product after addition of the methyl umbelliferyl-β-D-galactoside (Sigma #M1633) substrate on a microfluorimeter (365 nm for excitation and 450 nm for emission). Antiviral activity (IC50) of the test compound is determined by comparing the flourescence obtained in absence of compound to that obtained in the presence of compound.

VZV strain Ellen = assay: VZV Antiviral (ELISA) Assay; type: cell-based, varicella-zoster virus; conditions: Human alphaherpesvirus 3, 72 h; for IC50: human foreskin fibroblast cells, three days, read-out: IC50 (ug/ml) VZV; for inhibition at 10 µg/mL: read-out: % inhibition 10 ug/ml VZV, 10 ug/ml, human foreskin fibroblast cells, three days
Protocol: For the generation of stock VZV to be used in the assay, VZV strain Ellen (ATCC #VR-1367) is used to infect human foreskin fibroblast (HFF) cells at low multiplicity (less than 0.1) and incubated overnight at 37° C. in 5% CO2. After the overnight incubation, the mixture of uninfected and VZV-infected HFF infected cells are then harvested and added to each well of 96-well plates (3.5×10^4 cells in 100 1μl DMEM supplemented with 2% FBS) which contain test compound or the reference standard drug control (in 100 μl DMEM supplemented with 2% FBS per well). These cells are incubated for three days at 37° C. in 5% CO2, then fixed for ELISA assay. The primary antibody is murine anti-VZV glycoprotein II monoclonal antibody (Applied Biosystems, Inc. #13-145-100) and the secondary antibody is goat anti-mouse IgG linked to β-galactosidase. Thus the extent of viral replication is determined by assessing β-galactosidase activity by quantifying the generation of the 4-methyl umbelliferone fluorescent cleavage product after addition of the methyl umbelliferyl-β-D-galactoside (Sigma #M1633) substrate on a microfluorimeter (365 nm for excitation 450 nm for emission). Antiviral activity (IC50) of the test compound is determined by comparing the flourescence obtained in absence of compound to that obtained the presence of compound.

HCMV wild-type = assay: HCMV yield assay; type: cell-based, human cytomegalovirus; conditions: Human betaherpesvirus 5, Fibroblast; human foreskin fibroblasts; reduction of virus yield by 50%; read-out: IC50 (ug/ml) HCMV
Protocol: Yield assay. Monolayer cultures of human foreskin fibroblasts are infected with HCMV wild-type, typically at a multiplicity of infection equal to 0.2, in the presence of inhibitor compound (varying concentrations). At three days post-infection, total virus produced in these cultures (i.e. virus yield) is assessed by harvesting and titering the virus in 12-well plates of cultured human foreskin fibroblasts (done in the absence of inhibitor). Plaques are quantified at 2 weeks post-infection. An inhibitor of HCMV is identified by the reduction in titer of virus yield in the presence, compared to the titer in the absence of compound. In this assay, the relative anti-HCMV activity of an inhibitor is typically determined by calculating the IC50 or IC90 value, that is, the amount of compound required to reduce the virus yield by 50% or 90%, respectively. Table I describes IC50 data for compounds tested against HCMV.

IC50 (HSV-1) | Compound | IC50 (VZV strain Ellen) | inhibition at 10 µg/mL (VZV strain Ellen) | IC50 (HCMV wild-type)
> 10 µg/mL | CC(NC(=S)Nc1ccc(NC(=O)c2ccccc2F)cc1)c1ccnc2ccccc12 (centres unmarked) [Example 1096, 2-Fluoro-N-{4-[3-(1-quinolin-4-yl-ethyl)-thioureido]-phenyl}-benzamide] | 6.7 µg/mL (≈ 15.1 µM) | – | 5.7 µg/mL (≈ 12.8 µM)
> 10 µg/mL | CC(NC(=S)Nc1ccc(NC(=O)c2ccccc2F)cc1)c1cnc2ccccc2c1 (centres unmarked) [Example 1100, 2-Fluoro-N-{4-[3-(1-quinolin-3-yl-ethyl)-thioureido]-phenyl}-benzamide] | 7.3 µg/mL (≈ 16.4 µM) | – | 4.6 µg/mL (≈ 10.3 µM)
> 10 µg/mL | CC(NC(=S)Nc1ccc(NC(=O)c2ccccc2F)cc1)c1nccs1 (centres unmarked) [Example 1093, 2-Fluoro-N-{4-[3-(1-thiazol-2-yl-ethyl)-thioureido]-phenyl}-benzamide] | > 10 µg/mL | – | > 10 µg/mL
9 µg/mL (≈ 20.2 µM) | CC(NC(=S)Nc1ccc(NC(=O)c2ccccc2F)cc1)c1nccc2ccccc12 (centres unmarked) [Example 1098, 2-Fluoro-N-{4-[3-(1-isoquinolin-1-yl-ethyl)-thioureido]-phenyl}-benzamide] | 3.8 µg/mL (≈ 8.55 µM) | – | 3.5 µg/mL (≈ 7.87 µM)

Further lines, the compound ahead of its results:

Compound | IC50 (HSV-1) | IC50 (VZV strain Ellen) | inhibition at 10 µg/mL (VZV strain Ellen) | IC50 (HCMV wild-type)
O=C(Nc1ccc(NC(=S)Nc2ccccn2)cc1)c1ccccc1F [Example 443, 2-Fluoro-N-[4-(3-pyridin-2-yl-thioureido)-phenyl]-benzamide] | > 10 µg/mL | > 10 µg/mL | 0% | > 10 µg/mL
O=C(Nc1ccc(NC(=S)NCc2cccnc2)cc1)c1csnn1 [Example 634, [1,2,3]Thiadiazole-4-carboxylic acid [4-(3-pyridin-3-ylmethyl-thioureido)-phenyl]-amide] | > 10 µg/mL | > 10 µg/mL | – | 0.12 µg/mL (≈ 0.324 µM)
CC(C)(C)n1ccnc1NC(=S)Nc1ccc(NC(=O)c2csnn2)cc1 [Example 608, [1,2,3]Thiadiazole-4-carboxylic acid {4-[3-(1-tert-butyl-1H-imidazol-2-yl)-thioureido]-phenyl}-amide] | 9 µg/mL (≈ 22.4 µM) | > 10 µg/mL | – | > 0.5 µg/mL
CC(NC(=S)Nc1ccc(NC(=O)c2ccccc2F)cc1)c1cccn1C (centres unmarked) [Example 804, 2-Fluoro-N-(4-{3-[1-(1-methyl-1H-pyrrol-2-yl)-ethyl]-thioureido}-phenyl)-benzamide] | > 10 µg/mL | 5.7 µg/mL (≈ 14.4 µM) | – | > 10 µg/mL
O=C(Nc1ccc(NC(=S)Nc2ccc(Cl)nc2)cc1)c1csnn1 [Example 471, [1,2,3]Thiadiazole-4-carboxylic acid {4-[3-(6-chloro-pyridin-3-yl)-thioureido]-phenyl}-amide] | > 10 µg/mL | > 10 µg/mL | 27% | 0.03 µg/mL (≈ 0.0767 µM)
